Drawing on PubChem BioAssay AID272 (DTP/NCI, 2004), this text covers T/C for 2 compounds.

This test concerns Lewis lung carcinoma i.m., BDF1 mice, T/C %. The test is described as follows: NCI In Vivo Anticancer Drug Screen. Data for tumor model Lewis Lung Carcinoma (intramuscular) in B6D2F1 (BDF1) mice. The essentials:
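Tumour-bearing mice were dosed with compound, and either their survival or their tumour size was measured. Results were expressed relative to vehicle-treated controls as T/C.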

Structures are written as SMILES. Where “and” joins values, the source holds several entries; their conditions need not be identical. Equal values may be shown once. Records with an inconclusive call do not appear.

For the compound `COC12C(COC(N)=O)C3=C(C(=O)C(C)=C(N)C3=O)N1CC1C2N1C` (configuration not stated), the T/C was 92 % of control and 105 % of control (endpoint: median survival time, dose: 2.0 mg/kg/injection, schedule: Q01DX009 (ip), vehicle: Klucel (hydroxypropylcellulose) (HPC), higher = longer survival); 101 % of control and 111 % of control (endpoint: median survival time, dose: 2.0 mg/kg/injection, schedule: Q01DX011 (ip), vehicle: saline + alcohol, higher = longer survival); 100 % of control and 106 % of control (endpoint: median survival time, dose: 4.0 mg/kg/injection, schedule: Q01DX009 (ip), vehicle: Klucel (hydroxypropylcellulose) (HPC), higher = longer survival); 105 % of control (endpoint: median survival time, dose: 4.0 mg/kg/injection, schedule: Q01DX011 (ip), vehicle: saline + alcohol, higher = longer survival).
`CCN(CC)CCOC(=O)c1ccccc1N(c1ccccc1)c1ccccc1`: the T/C is 67 % of control (endpoint: mean tumor weight (est.), dose: 62.5 mg/kg/injection, schedule: Q01DX011 (ip), vehicle: Klucel (hydroxypropylcellulose) (HPC), higher = larger tumour); 59 % of control (endpoint: mean tumor weight (est.), dose: 125.0 mg/kg/injection, schedule: Q01DX011 (ip), vehicle: Klucel (hydroxypropylcellulose) (HPC), higher = larger tumour); 98 % of control (endpoint: median survival time, dose: 62.5 mg/kg/injection, schedule: Q01DX011 (ip), vehicle: Klucel (hydroxypropylcellulose) (HPC), higher = longer survival).
